Measurements from US20250333418A1, “PURINE COMPOUNDS, COMPOSITIONS COMPRISING THEM AND USES THEREOF” (Novo Nordisk A/S, priority 2022, published 2025).
pIC50: −log10 of the molar value.

Tests used:
human CB1 receptor [1] = biological target: T1, human CB1 receptor (Homo sapiens, UniProt P21554); experiment: bioSensAll β-arrestin2 plasma membrane translocation (+GRK2) BRET biosensor assay in HEK293 cells transfected with hCB1; test compound added before EC75-80 of agonist CP55,940 (100 nM); assay type: cell-based; settings: βArrestin2 (+GRK2) BRET biosensor, vs CP55,940 100 nM (EC75-80), read-out: CB1 wt βarr2 IC50
T1 construct: expressed in transfected cells; host or cells: HEK293
Method: (§1) Using polyethylenimine (PEI) transfection agent, HEK293 cells were transfected in suspension with the human CB1 receptor and one of the following bioSensAll® assays: GAPL-Gi2, or β-arrestin plasma membrane (PM) translocation biosensor (+GRK2). Cells were directly seeded in 96-well plates immediately following transfection.
(§2) Cells were incubated with coelenterazine (luciferase substrate) and different test compounds prior to the measurement of BRET signals.
(§3) Used in this project are i) Gα plasma membrane (GAPL) biosensors and the ii) β-arrestin plasma membrane translocation biosensor.
ii) The multimolecular β-arrestin membrane recruitment biosensors allow for real-time spatio-temporal monitoring of β-arrestin 1 and β-arrestin 2 following GPCR activation. Specifically, these β-arrestin sensors were designed to detect the recruitment of proteins to the plasma membrane (β-arrestin PM) with localization to compartment resulting in an increased BRET signal.
(§4) HEK293 cells were maintained in Dulbecco's Modified Eagle Medium (DMEM) (Wisent; cat #319-030-CL: without sodium pyruvate, with 4.5 g/L glucose, without L-glutamine) supplemented with 1% penicillin-streptomycin (Wisent; cat #450-201-EL) and 2 or 10% fetal bovine serum (Wisent cat #090150).
(§5) HEK293 cells were co-transfected with hCB1 and one of the above-listed bioSensAll® assays. For each transfection condition: • the total amount of transfected DNA was kept constant at 1 μg per mL of cell culture to be transfected; whenever necessary, salmon sperm DNA (Invitrogen, cat #15632011) was used as ‘carrier’ DNA to supplement plasmid DNA (i.e., biosensor and receptor); • the PEI (polyethylenimine 25 kDa linear, PolyScience, cat #23966) to DNA ratio (ug:ug) was fixed at 3:1.
(§6) Transfections were carried out as follows: • DNA and PEI were first diluted separately in 150 mM NaCl. The volume of the diluent in each tube corresponds to 5% of the cell culture volume to be transfected. • Once DNA and PEI were diluted, the PEI-containing solution was added to the DNA solution and the DNA/PEI mixture immediately vortexed for 5 seconds. • The DNA/PEI mixture was incubated for at least 20 minutes at room temperature to allow for the formation of DNA/PEI complexes. • During the incubation, HEK293 cells were detached, counted and re-suspended in culture medium (composition specified above). • At the end of the incubation period, the DNA/PEI mixture was added to the cells. • Cells were finally distributed in 96-well plates (White Opaque 96-well/Microplates, Greiner, cat #655083 or CulturPlate-96, White Opaque 96-well Microplate, PerkinElmer, cat #6005688) at a density of 30,000 cells per well.
(§7) At 48 hours post-transfection: • Using 450-Select TS Biotek plate washer, culture medium was aspirated and replaced with 100 μL of Hank's Balanced Salt Solution buffer (HBSS) (Wisent, cat #319-067CL: without red phenol; with sodium bicarbonate, with calcium and magnesium, with HEPES) per well. • Plates were then incubated (equilibrated) at 37° C., 5% CO2 for 60 minutes. • Increasing doses of test compounds were then added to each well using the HP D300e digital dispenser (Tecan). All compounds were assayed at the following 12 concentrations (in nM) with each biosensor: 0.000, 0.013, 0.040, 0.120, 0.320, 0.960, 2.80, 8.00, 24.0, 70.0, 205 and 600. • Three to 5 minutes later, an assay-specific effective concentration (EC)75-80 of agonist CP55,940 (i.e., 0.1 nM and 100 nM for G[…]i2-GAPL or […]Arrestin2 (+GRK2) assay, respectively) was added to wells previously injected with test compound (i.e., previous step 3). […]

human CB1 receptor [2] = biological target: T1, human CB1 receptor; experiment: bioSensAll GAPL-Gi2 BRET biosensor assay in HEK293 cells transfected with hCB1; test compound added before EC75-80 of agonist CP55,940 (0.1 nM); assay type: cell-based; settings: vs CP55,940 0.1 nM (EC75-80), read-out: CB1 wt Gi2 IC50
Method: as §1, §2, §3
i) GAPL sensors are used to monitor the activation of heterotrimeric G proteins at the plasma membrane upon receptor stimulation. Specifically, these multimolecular BRET sensors detect the plasma membrane recruitment of proteins that interact with active Gα subunits in a G protein family-selective manner. G protein activation following receptor stimulation generally leads to an increase in the BRET signal.
as §4, §5, §6, §7

T1 sequence (P21554 whole entry): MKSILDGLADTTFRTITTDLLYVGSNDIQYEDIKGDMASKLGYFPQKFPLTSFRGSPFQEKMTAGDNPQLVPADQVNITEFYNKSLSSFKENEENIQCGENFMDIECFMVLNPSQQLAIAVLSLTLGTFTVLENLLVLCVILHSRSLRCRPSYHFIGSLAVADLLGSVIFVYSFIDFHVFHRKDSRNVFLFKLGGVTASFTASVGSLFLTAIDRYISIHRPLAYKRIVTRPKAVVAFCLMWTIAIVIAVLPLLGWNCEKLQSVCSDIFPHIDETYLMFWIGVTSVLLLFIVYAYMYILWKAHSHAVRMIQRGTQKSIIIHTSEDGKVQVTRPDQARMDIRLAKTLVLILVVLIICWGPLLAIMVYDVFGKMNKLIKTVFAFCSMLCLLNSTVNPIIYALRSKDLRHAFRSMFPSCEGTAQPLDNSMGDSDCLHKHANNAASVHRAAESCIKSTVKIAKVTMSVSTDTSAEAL

Row | SMILES | pIC50 (human CB1 receptor [1]) | pIC50 (human CB1 receptor [2])
1 | CC(CO)Oc1nc(N2CCC(C(F)(F)F)CC2)c2nc(-c3ccccc3Cl)n(-c3ccc(Cl)cc3)c2n1 (single isomer, unassigned) [Compound 24, 2-[8-(2-chlorophenyl)-9-(4-chlorophenyl)-6-[4-(trifluoromethyl)-1-piperidyl]purin-2-yl]oxypropan-1-01] | 8.72 | 9.15
2 | CCOC1(C(N)=O)CCCN(c2nc(OCC(C)(C)O)nc3c2nc(-c2ccccc2Cl)n3-c2ccc(Cl)cc2)C1 (single isomer, unassigned) [Compound 216] | 8.06 | 8.75
3 | CCOC1(C(N)=O)CCCN(c2nc(OCC(C)(C)O)nc3c2nc(-c2ccccc2Cl)n3-c2ccc(Cl)cc2)C1 (single isomer, unassigned) [Compound 217] | 7.13 | 7.57
4 | CC(C)C(=O)Nc1nc(N2CCC(C)(C(N)=O)CC2)c2nc(-c3ccccc3Cl)n(-c3ccc(Cl)cc3)c2n1 [Compound 1, 1-[8-(2-chlorophenyl)-9-(4-chlorophenyl)-2-(2-methylpropanoylamino)purin-6-yl]-4-methyl-piperidine-4-carboxamide] | 7.82 | 8.37
5 | Cc1cnn(-c2nc(N3CCC(C)(C(N)=O)CC3)c3nc(-c4ccccc4Cl)n(-c4ccc(Cl)cc4)c3n2)c1 [Compound 3, 1-[8-(2-chlorophenyl)-9-(4-chlorophenyl)-2-(4-methylpyrazol-1-yl)purin-6-yl]-4-methyl-piperidine-4-carboxamide] | 7.91 | 8.86
6 | CC(C)(O)COc1nc(N2CCC(C)(C(N)=O)CC2)c2nc(-c3ccccc3Cl)n(-c3ccc(Cl)cc3)c2n1 [Compound 9, 1-[8-(2-chlorophenyl)-9-(4-chlorophenyl)-2-(2-hydroxy-2-methyl-propoxy)purin-6-yl]-4-methyl-piperidine-4-carboxamide] | 8.53 | 9.40
7 | CC(C)(O)COc1nc(NCCO)c2nc(-c3ccccc3Cl)n(-c3ccc(Cl)cc3)c2n1 [Compound 98] | < 5.30 | 
8 | CN(CC(C)(C)O)c1nc(N2CC(C(N)=O)C2)c2nc(-c3ccc(C#N)nc3)n(-c3ccc(Cl)cc3)c2n1 [Compound 129] |  | 6.36
9 | NC(=O)N1CC(Nc2nc(N3CCC[C@H]3CO)nc3c2nc(-c2ccccc2Cl)n3-c2ccc(Cl)cc2)C1 [Compound 175] |  | 8.28
10 | CCOC1(C(=O)O)CCN(c2nc(OCC(C)(C)O)nc3c2nc(-c2ccccc2Cl)n3-c2ccc(Cl)cc2)CC1 [Compound 218] |  | 8.11
11 | CC(C)(O)COc1nc(N2CCNCC2)c2nc(-c3ccccc3Cl)n(-c3ccc(Cl)cc3)c2n1 [Compound 219] |  | 7.22
12 | CC(C)(O)COc1nc(N2CC(C(N)=O)C2)c2nc(-c3ccccc3Cl)n(-c3ccc(Cl)cc3)c2n1 [Compound 238] |  | 7.86

Second part, the compound after the results:

Row | pIC50 (human CB1 receptor [1]) | pIC50 (human CB1 receptor [2]) | SMILES
13 | 8.46 | 9.38 | CC(CO)Oc1nc(N2CCC(C)(C(N)=O)CC2)c2nc(-c3ccccc3Cl)n(-c3ccc(Cl)cc3)c2n1 (single isomer, unassigned) [Compound 7, 1-[8-(2-chlorophenyl)-9-(4-chlorophenyl)-2-(2-hydroxy-1-methyl-ethoxy)purin-6-yl]-4-methyl-piperidine-4-carboxamide]
14 | 8.56 | 9.04 | CC(O)COc1nc(N2CCC(C)(C(N)=O)CC2)c2nc(-c3ccccc3Cl)n(-c3ccc(Cl)cc3)c2n1 (single isomer, unassigned) [Compound 8, 1-[8-(2-chlorophenyl)-9-(4-chlorophenyl)-2-(2-hydroxypropoxy)purin-6-yl]-4-methyl-piperidine-4-carboxamide]
15 | 8.69 | 9.15 | CC(O)COc1nc(N2CCC(C(F)(F)F)CC2)c2nc(-c3ccccc3Cl)n(-c3ccc(Cl)cc3)c2n1 (single isomer, unassigned) [Compound 25, 1-[8-(2-chlorophenyl)-9-(4-chlorophenyl)-6-[4-(trifluoromethyl)-1-piperidyl]purin-2-yl]oxypropan-2-ol]
16 | 7.20 | 7.98 | CN(C)C(=O)c1nc(N2CCC(C)(C(N)=O)CC2)c2nc(-c3ccccc3Cl)n(-c3ccc(Cl)cc3)c2n1 [Compound 2, 6-(4-carbamoyl-4-methyl-1-piperidyl)-8-(2-chlorophenyl)-9-(4-chlorophenyl)-N,N-dimethyl-purine-2-carboxamide]
17 | 7.98 | 8.69 | Cc1ccn(-c2nc(N3CCC(C)(C(N)=O)CC3)c3nc(-c4ccccc4Cl)n(-c4ccc(Cl)cc4)c3n2)n1 [Compound 4, 1-[8-(2-chlorophenyl)-9-(4-chlorophenyl)-2-(3-methylpyrazol-1-yl)purin-6-yl]-4-methyl-piperidine-4-carboxamide]
18 | 7.80 | 9.02 | CC1(C(N)=O)CCN(c2nc(N3CCNC[C@H]3CO)nc3c2nc(-c2ccccc2Cl)n3-c2ccc(Cl)cc2)CC1 [Compound 5, 1-[8-(2-chlorophenyl)-9-(4-chlorophenyl)-2-[(2S)-2-(hydroxymethyl)piperazin-1-yl]purin-6-yl]-4-methyl-piperidine-4-carboxamide]
19 | 8.32 | 9.06 | CC1(C(N)=O)CCN(c2nc(OCCCO)nc3c2nc(-c2ccccc2Cl)n3-c2ccc(Cl)cc2)CC1 [Compound 6, 1-[8-(2-chlorophenyl)-9-(4-chlorophenyl)-2-(3-hydroxypropoxy)purin-6-yl]-4-methyl-piperidine-4-carboxamide]
20 |  | 8.04 | CN(CP(C)(C)=O)c1nc(N2CCC(C)(C(N)=O)CC2)c2nc(-c3ccccc3Cl)n(-c3ccc(Cl)cc3)c2n1 [Compound 71, 1-[8-(2-chlorophenyl)-9-(4-chlorophenyl)-2-[dimethylphosphorylmethyl(methyl)amino]purin-6-yl]-4-methyl-piperidine-4-carboxamide]
21 |  | 7.56 | Cc1nc(C#N)ccc1-c1nc2c(N3CCC(C)(C(N)=O)CC3)nc(OCC(C)(C)O)nc2n1-c1ccc(Cl)cc1 [Compound 107, 1-[9-(4-chlorophenyl)-8-(6-cyano-2-methyl-3-pyridyl)-2-(2-hydroxy-2-methyl-propoxy)purin-6-yl]-4-methyl-piperidine-4-carboxamide]
22 | < 5.30 |  | CC(C)(O)COc1nc(N2CCC(C)(C(=O)O)CC2)c2nc(-c3ccc(C#N)nc3)n(-c3ccc(Cl)cc3)c2n1 [Compound 118, 1-[9-(4-chlorophenyl)-8-(6-cyano-3-pyridyl)-2-(2-hydroxy-2-methyl-propoxy)purin-6-yl]-4-methyl-piperidine-4-carboxylic acid]
23 |  | 7.84 | Cc1cnccc1-c1nc2c(N3CCC(C)(C(N)=O)CC3)nc(OCC(C)(C)O)nc2n1-c1ccc(Cl)cc1 [Compound 122, 1-[9-(4-chlorophenyl)-2-(2-hydroxy-2-methyl-propoxy)-8-(3-methyl-4-pyridyl)purin-6-yl]-4-methyl-piperidine-4-carboxamide]
24 |  | 7.56 | CC(=O)NC1(C)CN(c2nc(OCC(C)(C)OP(=O)(O)O)nc3c2nc(-c2ccccc2Cl)n3-c2ccc(Cl)cc2)C1 [Compound 239, 1-((6-(3-acetamido-3-methylazetidin-1-yl)-8-(2-chlorophenyl)-9-(4-chlorophenyl)-9H-purin-2-yl)oxy)-2-methylpropan-2-yl dihydrogen phosphate]
